Results: patent US11965180B2, “Cancer stem cell population and method for production thereof” (CHUGAI SEIYAKU KABUSHIKI KAISHA, priority 2010, dated 2024)

Experiments:
Format in all cases: cell-based, human
[1] = tested on: Lgr5-positive colon cancer stem cells; assay: Lgr5 expression in adherent cancer stem cells after chemotherapeutic agent treatment (flow cytometry); details: after 3 days of exposing Lgr5-positive colon cancer stem cells to 10 μg/ml
Procedure: Gray indicates fluorescence intensity or ALDH activity after staining cells with the antibodies described. White indicates fluorescence intensity or ALDH activity of an ALDH inhibitor after staining cells with a control isotype antibody.
CSC was incubated with a labeled antibody and analyzed using EPICS ALTRA (Beckman Coulter) and FACSCalibur (Becton Dickinson). The antibodies used were PE-labeled mouse anti-human CD133 (Miltenyi Biotec), PE-labeled mouse anti-human CD44 (BD Pharmingen), FITC-labeled mouse anti-human CD326 (EpCAM) (Miltenyi Biotec), PE-labeled mouse anti-human CD166 (R & D Systems), PE-labeled mouse anti-human CD24 (BD Pharmingen), PE-labeled mouse anti-human CD26 (BD Pharmingen), and PE-labeled mouse anti-human CD29 (BD Pharmingen) antibodies.
Subsequently, the CSC was incubated with a mouse anti-human Lgr5 antibody (2T15E-2) and then a PR-labeled rat anti-mouse IgG (Invitrogen) antibody for Lgr5 staining. Aldehyde dehydrogenase activity was measured using the AldeFluor Kit (Stemcell Technologies). Mouse cells and human CSC were distinguished by staining with an anti-mouse MHC class I antibody (Abcam) and a PE- or APC-labeled goat anti-human IgG2a (BioLegend) antibody. Dead cells were removed with the 7-AAD Viability Dye (Beckman Coulter).

[2] = tested on: Lgr5-positive colon cancer stem cells; assay: Cell growth, Cell Counting Kit-8, adherent cancer stem cells; details: 3-day culture; for growth of Lgr5-positive colon cancer stem cells: PLR123 and PLR59 cells
Procedure: (§1) To determine whether or not the Wnt signaling promotes the growth of colon cancer stem cells, the inventors examined the effects of FH535 (β-catenin/TCF inhibitor) and cardamonin (Wnt/β-catenin inhibitor that induces β-catenin degradation) on the growth of colon cancer stem cells. Cell growth was evaluated as described below. Floating and adherent cancer stem cells were seeded at about 100 and 1×10^4 cells per well, respectively, in 96-well plates. On days 0 and 3, living cells were counted using the Cell Counting Kit-8 assay (Doujindo) according to the manufacturer's protocol. The average absorbance on day 0 was expressed as 100%. For chemical sensitivity analysis, floating and adherent cancer stem cells were seeded at about 100 and 1×10^4 cells per well in 96-well plates, respectively. […] After 3-day culture in the presence of a drug, Cell Counting Kit-8 was added to the cells. The average absorbance of cells exposed to DMSO or the medium alone was expressed as 100%. All the experiments were conducted in triplicate.

[3] = tested on: Lgr5-negative colon cancer stem cells; assay: Cell growth, Cell Counting Kit-8, floating cancer stem cells; details: 3-day culture; for growth and survival of Lgr5-negative colon cancer stem cells: 10 μg/ml
Procedure: as §1

O=c1[nH]cc(F)c(=O)[nH]1 [5-FU]
Lgr5 status of drug-resistant cells [1]: negative for Lgr5
growth of Lgr5-positive colon cancer stem cells ([2]; 10 μg/ml): significantly inhibited the growth
growth and survival of Lgr5-negative colon cancer stem cells ([3]; PLR123 and PLR59 cells): had no effect on the growth and survival

Cc1cc([N+](=O)[O-])ccc1NS(=O)(=O)c1cc(Cl)ccc1Cl [FH535]
growth of Lgr5-positive colon cancer stem cells ([2]; 50 μM): significantly reduced the growth
growth of Lgr5-negative colon cancer stem cells ([3]; 50 μM, PLR123 and PLR59 cells): had no effect on the growth

COc1cc(O)cc(O)c1C(=O)/C=C/c1ccccc1 [cardamonin]
number of living cells ([2]; 50 μM, relative to DMSO alone, Lgr5-positive colon cancer stem cells): 70%
number of living cells ([3]; 50 μM, relative to DMSO alone, Lgr5-negative colon cancer stem cells): about 50%

CCc1c2c(nc3ccc(OC(=O)N4CCC(N5CCCCC5)CC4)cc13)-c1cc3c(c(=O)n1C2)COC(=O)[C@]3(O)CC [irinotecan]
growth of Lgr5-positive colon cancer stem cells ([2]; 10 μg/ml): significantly inhibited the growth
growth and survival of Lgr5-negative colon cancer stem cells ([3]; PLR123 and PLR59 cells): had no effect on the growth and survival
